Reference: ChEMBL document CHEMBL5252654 (ACS Med Chem Lett, 2023)

Columns and labels:
Phosphodiesterase 3 = Phosphodiesterase 3 (Homo sapiens, UniProt Q14432+Q13370); assay: Inhibition of human recombinant PDE3 expressed in Escherichia coli
Ribonuclease SLFN12 [1] = target: T1, Ribonuclease SLFN12 (Homo sapiens, UniProt Q8IYM2); assay: Binding affinity to SLFN12 (unknown origin) assessed as dissociation constant
Ribonuclease SLFN12 [2] = target: T1, Ribonuclease SLFN12; assay: Binding affinity to human recombinant SLFN12 expressed as Escherichia coli assessed as dissociation constant
[3] = target: T2, cGMP-inhibited 3',5'-cyclic phosphodiesterase 3B (Homo sapiens, UniProt Q13370); assay: Binding affinity to human recombinant PDE3B expressed as Escherichia coli assessed as dissociation constant
T2 sequence (Q13370 whole entry): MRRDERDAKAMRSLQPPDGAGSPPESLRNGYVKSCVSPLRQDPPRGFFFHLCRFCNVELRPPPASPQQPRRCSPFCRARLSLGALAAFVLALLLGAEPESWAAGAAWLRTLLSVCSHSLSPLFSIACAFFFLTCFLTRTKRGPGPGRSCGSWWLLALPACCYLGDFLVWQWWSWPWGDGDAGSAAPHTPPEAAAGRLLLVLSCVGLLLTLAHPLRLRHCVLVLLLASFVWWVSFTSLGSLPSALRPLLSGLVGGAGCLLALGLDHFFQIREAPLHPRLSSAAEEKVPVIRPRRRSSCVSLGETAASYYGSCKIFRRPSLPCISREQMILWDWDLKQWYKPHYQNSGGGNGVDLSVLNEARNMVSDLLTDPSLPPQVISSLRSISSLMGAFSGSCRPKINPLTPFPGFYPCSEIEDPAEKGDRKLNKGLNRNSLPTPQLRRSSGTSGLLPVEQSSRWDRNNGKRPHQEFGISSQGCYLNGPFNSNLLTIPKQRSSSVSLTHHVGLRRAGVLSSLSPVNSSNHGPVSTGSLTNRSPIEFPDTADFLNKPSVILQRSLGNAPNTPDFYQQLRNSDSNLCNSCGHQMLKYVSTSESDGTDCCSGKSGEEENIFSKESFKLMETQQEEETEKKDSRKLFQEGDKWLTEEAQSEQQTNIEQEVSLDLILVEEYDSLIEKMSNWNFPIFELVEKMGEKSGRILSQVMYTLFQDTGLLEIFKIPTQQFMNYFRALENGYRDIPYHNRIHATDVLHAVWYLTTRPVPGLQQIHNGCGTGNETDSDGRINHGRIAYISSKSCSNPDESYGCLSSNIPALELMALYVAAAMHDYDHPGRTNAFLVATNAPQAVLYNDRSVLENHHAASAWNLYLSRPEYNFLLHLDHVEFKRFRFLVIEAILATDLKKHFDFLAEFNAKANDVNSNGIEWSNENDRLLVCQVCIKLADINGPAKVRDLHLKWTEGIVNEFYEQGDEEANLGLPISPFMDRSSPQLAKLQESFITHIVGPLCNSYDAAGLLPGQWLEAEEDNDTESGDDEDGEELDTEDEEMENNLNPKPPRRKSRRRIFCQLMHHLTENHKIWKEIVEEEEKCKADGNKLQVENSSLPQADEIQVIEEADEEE

[4] = target: T2, cGMP-inhibited 3',5'-cyclic phosphodiesterase 3B; assay: Inhibition of PDE3B (unknown origin)
[5] = target: T3, cGMP-inhibited 3',5'-cyclic phosphodiesterase 3A (Homo sapiens, UniProt Q14432); assay: Binding affinity to PDE3A (unknown origin) assessed as dissociation constant
T3 sequence (Q14432 whole entry): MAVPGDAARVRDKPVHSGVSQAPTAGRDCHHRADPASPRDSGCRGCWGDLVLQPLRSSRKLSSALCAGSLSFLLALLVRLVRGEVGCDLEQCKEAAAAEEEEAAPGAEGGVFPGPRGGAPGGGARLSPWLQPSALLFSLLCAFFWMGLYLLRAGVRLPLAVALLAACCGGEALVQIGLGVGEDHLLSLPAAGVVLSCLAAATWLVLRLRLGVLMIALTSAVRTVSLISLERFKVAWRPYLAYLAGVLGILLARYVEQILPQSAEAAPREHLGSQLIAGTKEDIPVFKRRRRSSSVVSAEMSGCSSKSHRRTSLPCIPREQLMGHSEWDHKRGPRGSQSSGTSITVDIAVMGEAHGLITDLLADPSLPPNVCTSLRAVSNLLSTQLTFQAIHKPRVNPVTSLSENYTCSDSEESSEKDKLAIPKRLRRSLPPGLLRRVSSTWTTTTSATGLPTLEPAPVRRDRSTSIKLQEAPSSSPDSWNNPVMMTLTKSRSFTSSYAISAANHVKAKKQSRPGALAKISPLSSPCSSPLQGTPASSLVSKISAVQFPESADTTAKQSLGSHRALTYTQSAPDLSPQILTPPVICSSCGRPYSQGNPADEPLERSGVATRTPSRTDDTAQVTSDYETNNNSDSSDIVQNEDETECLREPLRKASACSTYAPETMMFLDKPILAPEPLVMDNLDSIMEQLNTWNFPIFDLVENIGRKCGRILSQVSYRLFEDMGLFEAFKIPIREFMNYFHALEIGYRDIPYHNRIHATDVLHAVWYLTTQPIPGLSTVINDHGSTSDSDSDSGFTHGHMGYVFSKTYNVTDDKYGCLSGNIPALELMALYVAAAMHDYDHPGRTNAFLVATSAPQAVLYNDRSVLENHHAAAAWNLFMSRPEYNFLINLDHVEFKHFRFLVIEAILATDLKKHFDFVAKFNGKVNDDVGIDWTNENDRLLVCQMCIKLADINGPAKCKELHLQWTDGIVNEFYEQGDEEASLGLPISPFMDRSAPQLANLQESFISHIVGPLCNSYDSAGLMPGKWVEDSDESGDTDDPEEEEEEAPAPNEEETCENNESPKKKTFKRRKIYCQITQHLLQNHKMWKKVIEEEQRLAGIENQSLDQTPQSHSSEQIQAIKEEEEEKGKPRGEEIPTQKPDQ

[6] = target: T3, cGMP-inhibited 3',5'-cyclic phosphodiesterase 3A; assay: Inhibition of PDE3A (unknown origin)
HeLa [7] = assay: Cytotoxicity against human HeLa cells assessed as reduction in cell viability after 72 hrs by MTT assay; assay type: functional, cell-based
[8] = Antiplatelet activity against ADP-induced Wistar rat platelet aggregation assessed as inhibition of platelet aggregation; assay type: functional, cell-based
[9] = Antiplatelet aggregation activity in rhesus monkey platelet rich plasma assessed as reduction in collagen-induced platelet aggregation; assay type: functional, cell-based; details: Macaca mulatta
HeLa [10] = assay: Antiproliferative activity against human HeLa cells assessed as reduction in cell growth; assay type: functional, cell-based
[11] = Antiplatelet aggregation activity in dog rich plasma assessed as reduction in ADP-induced platelet aggregation; assay type: functional, cell-based; details: Canis lupus familiaris
[12] = Antiplatelet aggregation activity in rabbit platelet-rich plasma assessed as reduction in ADP-induced aggregation incubated for 5 mins by aggregometry; assay type: functional, cell-based; details: Oryctolagus cuniculus
[13] = Antiplatelet activity in rabbit platelet rich plasma assessed as inhibition of antigen-antibody-induced platelet aggregation; assay type: functional, cell-based; details: Oryctolagus cuniculus
[14] = Inhibition of rhesus monkey blood platelet aggregation at 1 mg/kg, po; assay type: functional; details: Macaca mulatta
[15] = Antiplatelet aggregation activity in rabbit platelet rich plasma assessed as reduction in ADP-induced platelet aggregation; assay type: functional, cell-based; details: Oryctolagus cuniculus
[16] = Antiplatelet aggregation activity in Sprague-Dawley rat platelet rich plasma assessed as reduction in collagen-induced platelet aggregation; assay type: functional, cell-based
[17] = Antiplatelet activity in rabbit platelet rich plasma assessed as inhibition of arachidonic acid-induced platelet aggregation; assay type: functional, cell-based; details: Oryctolagus cuniculus
[18] = Half life in Beagle dog at 0.29 to 4.86 mg/kg, po; assay type: ADME, organism-based, Canis lupus familiaris; details: in vivo, dose 0.29-4.86 mg/kg
[19] = Antiplatelet activity in rabbit platelet rich plasma assessed as inhibition of collagen-induced platelet aggregation; assay type: functional, cell-based; details: Oryctolagus cuniculus
[20] = Inhibition of Rhesus monkey blood platelet aggregation at 4 mg/kg, po; assay type: functional; details: Macaca mulatta
[21] = Antiplatelet aggregation activity in Sprague-Dawley rat platelet rich plasma assessed as reduction in ADP-induced platelet aggregation; assay type: functional, cell-based
[22] = Half life in Wistar rat at 0.29 to 4.86 mg/kg, po; assay type: ADME, organism-based; details: in vivo, dose 0.29-4.86 mg/kg
[23] = Antiplatelet aggregation activity in human rich plasma assessed as reduction in collagen-induced platelet aggregation; assay type: functional, cell-based
[24] = Antiplatelet activity in rabbit platelet rich plasma assessed as inhibition of thrombin-induced platelet aggregation; assay type: functional, cell-based; details: Oryctolagus cuniculus
[25] = Antiplatelet aggregation activity in human rich plasma assessed as reduction in ADP-induced platelet aggregation; assay type: functional, cell-based
[26] = Antiplatelet aggregation activity in rhesus monkey platelet rich plasma assessed as reduction in ADP-induced platelet aggregation; assay type: functional, cell-based; details: Macaca mulatta
Oryctolagus cuniculus = assay: Antithrombotic activity in New Zealand White biolaser-induced oral dosed rabbit model assessed as reduction in thrombus mass; assay type: functional
HeLa [27] = assay: Antiproliferative activity against human HeLa cells assessed as reduction in cell viability measured after 72 hrs by MTT assay; assay type: functional, cell-based
[28] = Antiproliferative activity against human QGY-7701 cells assessed as reduction in cell viability measured after 72 hrs by MTT assay; assay type: functional, cell-based; details: QGY7701, 72 h

T1 sequence (Q8IYM2 whole entry): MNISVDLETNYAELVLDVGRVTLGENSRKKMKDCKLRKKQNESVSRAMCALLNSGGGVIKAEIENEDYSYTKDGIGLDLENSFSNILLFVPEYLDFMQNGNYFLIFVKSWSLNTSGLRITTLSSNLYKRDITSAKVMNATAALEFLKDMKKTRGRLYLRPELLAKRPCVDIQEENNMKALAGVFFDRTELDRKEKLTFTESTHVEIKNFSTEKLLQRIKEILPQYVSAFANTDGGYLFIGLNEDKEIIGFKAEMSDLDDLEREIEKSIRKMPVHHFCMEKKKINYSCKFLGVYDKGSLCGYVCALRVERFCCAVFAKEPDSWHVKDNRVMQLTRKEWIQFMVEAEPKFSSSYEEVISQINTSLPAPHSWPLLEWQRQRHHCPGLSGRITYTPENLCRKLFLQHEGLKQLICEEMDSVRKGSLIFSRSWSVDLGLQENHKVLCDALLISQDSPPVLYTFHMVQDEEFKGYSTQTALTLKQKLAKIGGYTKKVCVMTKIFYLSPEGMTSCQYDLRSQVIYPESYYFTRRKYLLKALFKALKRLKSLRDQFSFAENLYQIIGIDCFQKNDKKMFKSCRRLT

## CC1CC(=O)NN=C1c1ccc2c(c1)CCC(=O)N2C (stereo unspecified)
Phosphodiesterase 3
  IC50: 90 nM

## CCN(CC)c1ccc(C2=NNC(=O)C[C@H]2C)cc1[N+](=O)[O-]
Ribonuclease SLFN12 [1]
  Kd: 870 nM
Ribonuclease SLFN12 [2]
  Kd: 65 nM
[3]
  Kd: 320 nM
[4]
  IC50: 100 nM
[5]
  Kd: 40 nM
[6]
  IC50: 25 nM

## O=C1CN2Cc3c(ccc(-c4ccc(Cl)cc4)c3Cl)N=C2N1
HeLa [7]
  EC50: 1.8 nM

## O=C1CN2Cc3c(ccc(Br)c3Cl)N=C2N1
HeLa [7]
  EC50: 2.53 nM

## O=C1CN2Cc3c(ccc(-c4ccoc4)c3Cl)N=C2N1
HeLa [7]
  EC50: 0.6 nM

## C[C@@H]1OC(=O)NN=C1c1ccc(-c2ccc(F)cc2)c(C(F)(F)F)c1
HeLa [7]
  EC50: 1.3 nM

## Cc1ccccc1-c1ccc2c(c1Cl)CN1CC(=O)NC1=N2
HeLa [7]
  EC50: 1.09 nM

## Cc1cccc(-c2ccc3c(c2Cl)CN2CC(=O)NC2=N3)c1
HeLa [7]
  EC50: 1.37 nM

## O=C1CN2Cc3c(Cl)cccc3N=C2N1
HeLa [7]
  EC50: 42.9 nM

## CCc1ccc(-c2ccc3c(c2Cl)CN2CC(=O)NC2=N3)cc1
HeLa [7]
  EC50: 1.8 nM

## N#Cc1ccc(-c2ccc3c(c2Cl)CN2CC(=O)NC2=N3)cc1
HeLa [7]
  EC50: 2.38 nM

## O=C1NC2=Nc3ccc(Cl)c(Cl)c3CN2C1O (stereo unspecified)
[8]
  EC50: 48 nM
Phosphodiesterase 3
  IC50: 32 nM

## O=C1CN2Cc3c(ccc(F)c3Cl)N=C2N1
HeLa [7]
  EC50: 34.2 nM

## O=C1CN2Cc3c(ccc(-c4ccncc4)c3Cl)N=C2N1
HeLa [7]
  EC50: 6.22 nM

## O=C1CN2Cc3c(ccc(-c4ccccc4)c3Cl)N=C2N1
HeLa [7]
  EC50: 0.56 nM

## Cc1ccc(-c2ccc3c(c2Cl)CN2CC(=O)NC2=N3)cc1
HeLa [7]
  EC50: 0.3 nM

## O=C1CN2Cc3c(ccc(-c4ccc(O)cc4)c3Cl)N=C2N1
HeLa [7]
  EC50: 12.3 nM

## O=C1CN2Cc3c(ccc(-c4ccsc4)c3Cl)N=C2N1
HeLa [7]
  EC50: 1.77 nM

## O=C1CN2Cc3c(cc(Cl)c(-c4ccccc4)c3Cl)N=C2N1
HeLa [7]
  EC50: 1.14 nM

## O=C1CN2Cc3c(ccc(Cl)c3Cl)N=C2N1 [ANAGRELIDE]
[9]
  EC50: 80 nM
HeLa [10]
  EC50: 4 nM
[11]
  EC50: 310 nM
[8]
  EC50: 27 nM
[12]
  EC50: < 1 µg/mL
[13]
  EC50: 740 nM
[14]
  inhibition in vivo at 1 mg/kg: 24%
[15]
  EC50: 1200 nM
[16]
  EC50: 150 nM
[17]
  EC50: 390 nM
[18]
  half-life: 19 h
[19]
  EC50: 310 nM
HeLa [7]
  EC50: 6.67 nM
[20]
  inhibition in vivo at 4 mg/kg: 47%
[21]
  EC50: 270 nM
[22]
  half-life: 7 h
[23]
  EC50: 80 nM
[24]
  EC50: 700 nM
[25]
  EC50: 400 nM
[26]
  EC50: 500 nM
Oryctolagus cuniculus
  ED50: 2.5 mg/kg
HeLa [27]
  EC50: 5.12 nM

## O=C1CCc2cc(OCCCCc3nnnn3C3CCCCC3)ccc2N1 [CILOSTAZOL]
Phosphodiesterase 3
  IC50: 200 nM

## C[C@]12CC[C@@H]3c4ccc(O)cc4CC[C@H]3[C@@H]1CC[C@@H]2O [ESTRADIOL]
HeLa [7]
  EC50: 0.7 nM

## C[C@@H]1C(=O)NC2=Nc3cccc(Cl)c3CN21 [QUAZINONE]
Phosphodiesterase 3
  IC50: 580 nM

## COc1cc(-c2ccc(=O)[nH]n2)ccc1OC(F)F [ZARDAVERINE]
[28]
  EC50: 56.8 nM
